The subject of one series is 320 protein kinases. Description: 33PanQinase radiometric kinase assay, kinome profiling. The class given is biochemical, human. The following applies: 1 μM; 320 kinases; initial test. How it is done: (§1) A radiometric protein kinase assay (33PanQinase Activity Assay) was used for measuring the kinase activity of the 320 protein kinases. All kinase assays were performed in 96-well FlashPlates™ from Perkin Elmer (Boston, Mass., USA) in a 50 μl reaction volume. The reaction cocktail was pipetted in 4 steps in the following order: • 1. 10 μl of non-radioactive ATP solution (in H2O) • 2. 25 μl of assay buffer/[γ-33P]-ATP mixture • 3. 5 μl of test sample in 10% DMSO • 4. 10 μl of enzyme/substrate mixture
(§2) All PKC assays (except the PKC-mu and the PKC-nu assay) additionally contained 1 mM CaCl2, 4 mM EDTA, 5 μg/ml phosphatidylserine and 1 μg/ml 1,2-dioleyl-glycerol.
The CAMKID, CAMK2A, CAMK2B, CAMK2D, CAMK4, CAMKK1, CAMKK2, DAPK2, EEF2K, MYLK, MYLK2 and MYLK3 assays additionally contained 1 μg/ml Calmodulin and 0.5 mM CaCl2). […] Incorporation of 33Pi (counting of “cpm”) was determined with a microplate scintillation counter (Microbeta, Wallac). […]
Kinases from external vendors CAR=Carna Biosciences Inc.; INV=Life Technologies (Invitrogen Corporation); MIL=Merck-Millipore (Millipore Corporation) were expressed, purified and quality-controlled by virtue of the vendors readings.
For each kinase, the median value of the cpm of three wells was defined as “low control” (n=3). […] The residual activity (in %) for each compounds well was calculated by using the following formula: […]

Another series addresses hERG potassium channel (Homo sapiens, UniProt Q12809). Description: in vitro. The conditions noted are these: human. How it is done: (§3) The in vitro effects of compounds A, B, C, D, E, and F on the hERG (human ether-à-go-go-related gene) potassium channel current (a surrogate for IKr, the rapidly activating, delayed rectifier cardiac potassium current) expressed in mammalian cells were evaluated at room temperature using the QPatch HT (Sophion Bioscience A/S, Denmark), an automatic parallel patch clamp system. The test articles were evaluated at 1 μM, 3 μM, […] and 30 μM. Each test article concentration was tested in at least three cells. The duration of exposure to each test article concentration was a minimum of 3 minutes.

The target in series [1] is hERG (human ether-à-go-go-related gene) potassium channel (Homo sapiens, UniProt Q12809). Put plainly: cell-based. The conditions noted are these: for IC50: hERG IC50, QPatch HT, room temperature. How it is done: as §3
hERG (human ether-à-go-go-related gene) potassium channel, sequence (Q12809 whole entry): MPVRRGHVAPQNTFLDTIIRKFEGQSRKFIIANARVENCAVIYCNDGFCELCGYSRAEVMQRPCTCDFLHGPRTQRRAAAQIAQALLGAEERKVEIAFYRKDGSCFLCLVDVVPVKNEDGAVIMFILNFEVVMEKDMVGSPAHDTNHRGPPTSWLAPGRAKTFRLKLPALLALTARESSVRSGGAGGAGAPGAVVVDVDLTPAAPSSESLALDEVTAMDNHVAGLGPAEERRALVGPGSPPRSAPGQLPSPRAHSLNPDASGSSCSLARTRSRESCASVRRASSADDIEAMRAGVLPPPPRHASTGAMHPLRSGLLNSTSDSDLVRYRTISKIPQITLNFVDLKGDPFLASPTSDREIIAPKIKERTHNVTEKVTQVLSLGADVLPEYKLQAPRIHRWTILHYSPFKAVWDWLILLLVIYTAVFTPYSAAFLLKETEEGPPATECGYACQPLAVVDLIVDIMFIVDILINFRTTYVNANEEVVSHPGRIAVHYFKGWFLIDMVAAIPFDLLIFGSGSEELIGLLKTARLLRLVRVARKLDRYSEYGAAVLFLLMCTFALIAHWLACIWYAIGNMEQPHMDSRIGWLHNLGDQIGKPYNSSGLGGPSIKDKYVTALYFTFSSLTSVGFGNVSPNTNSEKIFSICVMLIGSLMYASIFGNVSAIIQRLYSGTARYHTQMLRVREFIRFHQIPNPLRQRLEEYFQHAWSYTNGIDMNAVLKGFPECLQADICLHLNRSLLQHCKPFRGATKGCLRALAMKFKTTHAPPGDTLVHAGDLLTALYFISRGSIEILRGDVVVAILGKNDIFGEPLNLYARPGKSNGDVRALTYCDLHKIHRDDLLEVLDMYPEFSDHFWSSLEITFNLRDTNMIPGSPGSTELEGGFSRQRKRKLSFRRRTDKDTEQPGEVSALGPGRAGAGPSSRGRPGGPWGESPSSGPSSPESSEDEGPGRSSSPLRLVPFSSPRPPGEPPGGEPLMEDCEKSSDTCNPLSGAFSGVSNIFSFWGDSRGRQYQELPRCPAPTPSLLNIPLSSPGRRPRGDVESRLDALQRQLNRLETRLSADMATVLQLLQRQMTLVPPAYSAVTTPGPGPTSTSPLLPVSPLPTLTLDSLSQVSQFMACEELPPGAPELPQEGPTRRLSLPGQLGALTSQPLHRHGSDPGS
Another series deals with T1, CDK8/Cyclin C (Homo sapiens, UniProt P49336).
T1 construct: purchased ProQinase; host or cells: Sf9 insect cells or E. coli
T1 sequence (P49336 whole entry): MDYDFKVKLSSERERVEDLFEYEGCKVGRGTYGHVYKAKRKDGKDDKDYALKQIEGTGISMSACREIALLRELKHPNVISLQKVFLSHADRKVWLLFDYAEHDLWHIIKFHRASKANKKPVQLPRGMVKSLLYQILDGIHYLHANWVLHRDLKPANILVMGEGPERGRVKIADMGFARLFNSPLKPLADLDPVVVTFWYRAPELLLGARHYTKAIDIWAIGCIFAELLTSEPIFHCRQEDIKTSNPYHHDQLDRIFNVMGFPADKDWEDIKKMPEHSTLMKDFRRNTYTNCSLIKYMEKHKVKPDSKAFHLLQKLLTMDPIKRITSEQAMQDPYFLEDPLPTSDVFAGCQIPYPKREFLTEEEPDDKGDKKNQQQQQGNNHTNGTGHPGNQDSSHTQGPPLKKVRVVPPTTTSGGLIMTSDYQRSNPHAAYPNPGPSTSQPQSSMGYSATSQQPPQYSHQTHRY
T1 sequence (P24863 whole entry partner): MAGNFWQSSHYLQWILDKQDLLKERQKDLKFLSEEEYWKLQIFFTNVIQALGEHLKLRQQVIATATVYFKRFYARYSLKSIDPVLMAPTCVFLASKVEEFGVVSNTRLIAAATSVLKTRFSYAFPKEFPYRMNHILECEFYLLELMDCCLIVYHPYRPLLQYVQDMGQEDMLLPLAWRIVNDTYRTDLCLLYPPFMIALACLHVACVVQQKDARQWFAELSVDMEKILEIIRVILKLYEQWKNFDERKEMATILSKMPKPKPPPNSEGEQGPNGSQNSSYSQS
Description: 33PanQinase radiometric kinase assay, CDK8/Cyclin C. In kind it is biochemical. The conditions noted are these: read-out: percent inhibition of CDK8/Cyclin C. How it is done:
as §1, §2
The CAMKID, CAMK2A, CAMK2B, CAMK2D, CAMK4, CAMKK1, CAMKK2, DAPK2, EEF2K, MYLK, MYLK2 and MYLK3 assays additionally contained 1 μg/ml Calmodulin and 0.5 mM CaCl2). The PRKG1 and PRKG2 assays additionally contained 1 μM cGMP. The DNA-PK assay additionally contained 2.5 μg/ml DNA. The protein kinase reaction cocktails were incubated at 30° C. for 60 minutes. The reaction was stopped with 50 μl of 2% (v/v) H3PO4, plates were aspirated and washed two times with 200 μl 0.9% (w/v) NaCl. Incorporation of 33Pi (counting of “cpm”) was determined with a microplate scintillation counter (Microbeta, Wallac). All protein kinase assays were performed with a BeckmanCoulter Biomek 2000/SL robotic system.
All protein kinases provided by ProQinase were expressed in Sf9 insect cells or in E. coli as recombinant GST-fusion proteins or His-tagged proteins, either as full-length or enzymatically active fragments. All kinases were produced from human cDNAs and purified by either GSHaffinity chromatography or immobilized metal. Affinity tags were removed from a number of kinases during purification. The purity of the protein kinases was examined by SDSPAGE/Coomassie staining, the identity was checked by mass spectroscopy.
For each kinase, the median value of the cpm of three wells was defined as “low control” (n=3). This value reflects unspecific binding of radioactivity to the plate in the absence of a protein kinase but in the presence of the substrate. Additionally, for each kinase the median value of the cpm of three other wells was taken as the “high control”, i.e. full activity in the absence of any inhibitor (n=3). The difference between high and low control of each enzyme was taken as 100% activity. As part of the data evaluation the low control of each kinase was subtracted from the high control value as well as from their corresponding “compounds values”. The residual activity (in %) for each compounds well was calculated by using the following formula:
Res. Activity (%)=100×[(signal of compounds−low control)/(high control−low control)]

Series [2] can be described thus: Tolerability study of Compound A and Compound D (body weight). In kind it is in vivo, female NSG mice. The conditions noted are these: for initial loss in weight: 10 mg/kg dosing group (Compound A PO, Compound D IV), recovered after dosing holiday; for tolerability: doses at or below 3 mg/kg (Compound A PO, Compound D IV). How it is done: Twenty-five female NSG mice were randomly assigned to various treatment groups as described in Table 11. All mice were treated for 7 days unless as indicated below.
On study days zero to six (seven doses), Compound A was administered via oral gavage in a volume of 10 mL/kg and Compound D was administered via intravenous injection into the lateral tail vein in a volume of 10 mL/kg. Body weights were recorded daily for fifteen days (days zero to fourteen) and animal health was assessed daily.
Mice were monitored clinically for signs of morbidity and for body weights daily. Mice showing signs of morbidity were euthanized as per study guidelines.

In another series the target is T2, Phosphodiesterase PDE3 (Homo sapiens, UniProt Q14432).
T2 construct: Eurofins Panlabs
Put plainly: Panlab assay, Phosphodiesterase PDE3. The class given is biochemical. The following applies: read-out: IC50, inhibition of Phosphodiesterase PDE3 activity. Here is the method: Compounds A, B, C, and D were tested in Panlab assays to evaluate potential off-target activity using standard assay kits. Methods employed in these studies have been adapted from the scientific literature to maximize reliability and reproducibility.
IC50 values were determined by a non-linear, least squares regression analysis using MathIQ™ (ID Business Solutions Ltd., UK). […] Where presented, the Hill coefficient (nH), defining the slope of the competitive binding curve, was calculated using MathIQ™.

A further series concerns the target T3, ALK (Homo sapiens, UniProt Q9UM73).
T3 construct: purchased ProQinase; host or cells: Sf9 insect cells or E. coli
Put plainly: 33PanQinase radiometric kinase assay, ALK. The class given is biochemical. The conditions noted are these: in vitro, read-out: percent inhibition of ALK. How it is done:
as §1, §2
The CAMKID, CAMK2A, CAMK2B, CAMK2D, CAMK4, CAMKK1, CAMKK2, DAPK2, EEF2K, MYLK, MYLK2 and MYLK3 assays additionally contained 1 μg/ml Calmodulin and 0.5 mM CaCl2). The PRKG1 and PRKG2 assays additionally contained 1 μM cGMP. The DNA-PK assay additionally contained 2.5 μg/ml DNA. […] Incorporation of 33Pi (counting of “cpm”) was determined with a microplate scintillation counter (Microbeta, Wallac). […]
For each kinase, the median value of the cpm of three wells was defined as “low control” (n=3). This value reflects unspecific binding of radioactivity to the plate in the absence of a protein kinase but in the presence of the substrate. […] The residual activity (in %) for each compounds well was calculated by using the following formula: […]

The next series deals with MKPL1. Put plainly: Half-maximal growth inhibition (GI50), MKPL1. The conditions noted are these: Homo sapiens, 240 h, AML, M7, read-out: GI50 (nM), day 10. In kind it is cell-based. Here is the method:
(§4) Compounds A, B, C, D, and F were tested against various cell lines to probe their broad utility against cancer. Cortistatin A (CA) was also tested against the cell lines in a head to head fashion.

The test system of a further series is K562. Description: Half-maximal growth inhibition (GI50), K562. In kind it is cell-based. The following applies: Homo sapiens, 240 h, CML, BCR-Abl, read-out: GI50 (nM), day 10. Here is the method:
as §4

Setting [3] is: Individual Data Points (% Inhibition), hERG.

These results are taken from patent US20180298024A1, “CORTISTATIN ANALOGS AND USES THEREOF” (President and Fellows of Harvard College, priority 2015, published 2018).

“And” between values parts separate entries of the source, which are not always exact repeats. Equal entries are not always repeated. Bounds are passed on as bounds.

hERG potassium channel, sequence (Q12809 whole entry): as the sequence (Q12809 whole entry) above
T3 sequence (Q9UM73 19-1620): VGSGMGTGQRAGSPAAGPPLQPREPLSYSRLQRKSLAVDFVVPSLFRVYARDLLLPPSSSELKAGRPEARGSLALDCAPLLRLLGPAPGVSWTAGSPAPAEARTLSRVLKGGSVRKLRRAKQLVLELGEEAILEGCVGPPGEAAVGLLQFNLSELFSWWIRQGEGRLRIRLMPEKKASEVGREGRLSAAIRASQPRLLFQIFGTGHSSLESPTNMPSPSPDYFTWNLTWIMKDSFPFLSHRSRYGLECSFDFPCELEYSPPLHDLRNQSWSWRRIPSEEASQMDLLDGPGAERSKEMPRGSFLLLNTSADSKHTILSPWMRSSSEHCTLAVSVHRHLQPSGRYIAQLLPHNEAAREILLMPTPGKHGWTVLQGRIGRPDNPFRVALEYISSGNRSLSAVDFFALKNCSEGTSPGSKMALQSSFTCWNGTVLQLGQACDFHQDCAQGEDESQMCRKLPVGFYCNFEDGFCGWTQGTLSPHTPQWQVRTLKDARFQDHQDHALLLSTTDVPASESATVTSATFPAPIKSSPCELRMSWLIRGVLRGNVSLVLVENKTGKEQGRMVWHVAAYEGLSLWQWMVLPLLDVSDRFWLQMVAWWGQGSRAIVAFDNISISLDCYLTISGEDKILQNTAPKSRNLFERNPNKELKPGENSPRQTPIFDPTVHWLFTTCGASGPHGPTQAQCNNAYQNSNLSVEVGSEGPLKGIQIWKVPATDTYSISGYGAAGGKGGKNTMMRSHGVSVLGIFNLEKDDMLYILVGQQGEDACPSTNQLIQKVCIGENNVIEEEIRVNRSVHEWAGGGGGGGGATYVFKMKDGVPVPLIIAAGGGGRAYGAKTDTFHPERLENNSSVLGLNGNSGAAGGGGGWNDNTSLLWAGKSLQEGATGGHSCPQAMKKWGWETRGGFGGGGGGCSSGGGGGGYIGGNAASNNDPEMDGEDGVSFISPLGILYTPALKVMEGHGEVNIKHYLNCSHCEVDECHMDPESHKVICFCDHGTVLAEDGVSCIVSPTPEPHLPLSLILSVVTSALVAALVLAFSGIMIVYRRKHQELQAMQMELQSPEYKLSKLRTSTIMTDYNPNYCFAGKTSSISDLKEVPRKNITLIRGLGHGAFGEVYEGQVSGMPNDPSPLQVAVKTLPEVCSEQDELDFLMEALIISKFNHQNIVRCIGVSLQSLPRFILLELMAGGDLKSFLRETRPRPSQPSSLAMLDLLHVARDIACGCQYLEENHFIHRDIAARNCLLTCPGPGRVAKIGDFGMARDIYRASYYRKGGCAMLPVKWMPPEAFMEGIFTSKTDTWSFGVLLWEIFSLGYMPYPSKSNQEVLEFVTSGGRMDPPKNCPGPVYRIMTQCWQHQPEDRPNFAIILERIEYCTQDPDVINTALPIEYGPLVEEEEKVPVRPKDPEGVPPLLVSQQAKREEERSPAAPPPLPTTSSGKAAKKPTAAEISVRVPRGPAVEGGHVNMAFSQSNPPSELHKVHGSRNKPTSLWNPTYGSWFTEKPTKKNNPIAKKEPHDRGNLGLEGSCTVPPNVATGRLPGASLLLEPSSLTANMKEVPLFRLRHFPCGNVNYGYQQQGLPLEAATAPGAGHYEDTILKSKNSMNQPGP

For the molecule `C[C@]12CC=C3C=C4CC[C@@H](O)C[C@]45CC[C@]3(O5)[C@@H]1CC[C@@H]2c1ccc2ccncc2c1` [Compound A, (3S,3aR,9R,10aR,12aS,12bR)-3-(isoquinolin-7-yl)-3a-methyl-1,2,3,3a,4,7,8,9,10,11,12,12b-dodecahydro-10a,12a-epoxybenzo[4,5]cyclohepta[1,2-e]inden-9-ol], the “number of kinases with an average of >50% inhibition” value in the series with 320 protein kinases is given as 5. The molecule also registered an inhibition at 10 µM against hERG potassium channel (setting [3]) of 17.6%. Moreover, on hERG potassium channel (Mean % hERG Inhibition), the inhibition at 1 µM worked out at 4%, the inhibition at 3 µM stood at 9%, the inhibition at 10 µM is 19.6% and the inhibition at 30 µM turned out to be 43.7%. For the same molecule, in series [1], the IC50 was more than 30 µM. Further, the “Mean % hERG Inhibition” value in series [1] (human, 3 µM) is 9.2%. In addition, on CDK8/Cyclin C, the inhibition at 1 µM was more than 50%. In series [2], the “initial loss in weight” value was “approximately 15%” and the “tolerability” value was “well tolerated”. On Phosphodiesterase PDE3, the IC50 stood at 3.26 µM. Besides, the inhibition at 1 µM at ALK was less than 10%.
Consider `C[C@]12CC=C3C=C4CC[C@@H](N5CC[C@@H](N)C5)C[C@]45CC[C@]3(O5)[C@@H]1CC[C@@H]2c1ccc2ccncc2c1` [Compound B], for which, at hERG potassium channel (setting [3]), the inhibition at 1 µM stood at 5.4%, the inhibition at 3 µM is 17.1% and the inhibition at 30 µM came out at 89.4%. On hERG potassium channel (Mean % hERG Inhibition), this molecule registered an inhibition at 1 µM of 4.1%, an inhibition at 3 µM of 18.9%, an inhibition at 10 µM of 44.5% and an inhibition at 30 µM of 82.7%. Besides, in [1], it took 10.7 µM to reach half-maximal inhibition (IC50). Besides, in series [1] (human), the “fold less hERG activity than Compound E” value is 10-100 fold. The inhibition at 1 µM at CDK8/Cyclin C was more than 50%. For the same molecule, in the series with MKPL1, the GI50 was found to be 2 nM.
Turning to `C[C@]12CC=C3C=C4CC[C@@H](N5CC(N)C5)C[C@]45CC[C@]3(O5)[C@@H]1CC[C@@H]2c1ccc2ccncc2c1` [Compound C], on hERG potassium channel (setting [3]), the inhibition at 3 µM amounted to 12.7%, the inhibition at 10 µM is 45.8% and the inhibition at 30 µM was 66.9%. In addition, on hERG potassium channel (Mean % hERG Inhibition), the inhibition at 1 µM was 5.8%, the inhibition at 3 µM stood at 17.1%, the inhibition at 10 µM was 49.8% and the inhibition at 30 µM was 75.5%. The same molecule gave an IC50 in [1] of 10.9 µM. For the same molecule, the inhibition at 1 µM at CDK8/Cyclin C is more than 50%.
Consider `C[C@]12CC=C3C=C4CC[C@@H](N5C[C@H](O)[C@@H](O)C5)C[C@]45CC[C@]3(O5)[C@@H]1CC[C@@H]2c1ccc2ccncc2c1` [Compound D], for which, on hERG potassium channel (setting [3]), the inhibition at 1 µM worked out at 11.5%, the inhibition at 3 µM came out at 25.1%, the inhibition at 10 µM was found to be 71.6% and the inhibition at 30 µM is 97.9%. On hERG potassium channel (Mean % hERG Inhibition), this molecule gave an inhibition at 1 µM of 8%, an inhibition at 3 µM of 27.3%, an inhibition at 10 µM of 63.9% and an inhibition at 30 µM of 91.3%. Besides, in series [1], the “activity in the hERG assay” value is reported as “single digit micromolar activity”; the IC50 was 6.28 µM and 6.3 µM. Also, in [1] (human), the “fold less hERG activity than Compound E” value is 10-100 fold. Moreover, at CDK8/Cyclin C, the inhibition at 1 µM is more than 50%. In [2], the “initial loss in weight” value was “approximately 20%” and the “tolerability” value was “well tolerated”. Further, the GI50 in the series with MKPL1 worked out at 1.5 nM. In the series with K562, the GI50 is more than 1000 nM.

A word on the IC50: it is the concentration needed to halve the response being measured. A word on the GI50: it is the concentration at which growth is held to half of that of the control.
